Measurements reported in PubChem BioAssay (NCI).
Values joined by “and” are separate entries in the source; they are usually repeats but may differ in a detail not shown here. Equal entries are not always repeated.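 Results reflect a 48-hour exposure of cells in 96-well plates to compound at five concentrations. GI50 is the concentration that inhibits growth by half. TGI marks complete inhibition of growth.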

Tests used:
Assay in all cases: NCI-60 cell line screen, 48 h
EKVX NSCLC = test system: EKVX NSCLC
NCI-H522 lung = test system: NCI-H522 lung
CAKI-1 renal = test system: CAKI-1 renal
UACC-62 melanoma = test system: UACC-62 melanoma
SK-MEL-2 melanoma = test system: SK-MEL-2 melanoma
MCF7 breast = test system: MCF7 breast
HT29 colon = test system: HT29 colon
PC-3 prostate = test system: PC-3 prostate
SN12C renal = test system: SN12C renal
MDA-MB-231 breast = test system: MDA-MB-231 breast

SMILES | TGI (EKVX NSCLC) [nM] | TGI (NCI-H522 lung) | TGI (CAKI-1 renal) | TGI (UACC-62 melanoma) [nM] | TGI (SK-MEL-2 melanoma) | TGI (MCF7 breast) [nM] | TGI (HT29 colon) [nM] | TGI (PC-3 prostate) [nM] | TGI (SN12C renal) | TGI (MDA-MB-231 breast) [nM] | GI50 (EKVX NSCLC) | GI50 (CAKI-1 renal) [nM] | GI50 (UACC-62 melanoma) [nM] | GI50 (MCF7 breast) [nM] | GI50 (HT29 colon) [nM] | GI50 (PC-3 prostate) [nM] | GI50 (MDA-MB-231 breast) [nM] | GI50 (NCI-H522 lung) [nM] | GI50 (SK-MEL-2 melanoma) [nM] | GI50 (SN12C renal) [nM]
CC[C@@]1(O)C(=O)OCc2c1cc1n(c2=O)Cc2c-1nc1ccccc1c2/C=N\NC(=O)C(N)Cc1cnc[nH]1 (some centres undefined) | > 100000 | > 19700 nM | 3210 nM | 1220 | > 46500 nM | 35300 | > 57300 | > 100000 | > 73000 nM | > 100000 | – | – | – | – | – | – | – | – | – | –
CCOC(=O)c1c(C)[nH]c(/C=C2\N=C(c3ccc[nH]3)C=C2OC)c1C | 3810 | – | 795 nM | 90.4 | – | 1300 | 1190 | 2450 | – | 1320 | 469 nM | 46.1 | 30.9 | 46.9 | < 10 | 44.2 | 26.3 | – | – | –
O=C1C=C(N2CC2)C(=O)C=C1N1CC1 | 4840 | 72.7 nM and 144 nM | 24.7 nM and 67.5 nM | – | 60.5 nM and 360 nM | 71.2 | 1400 | – | 278 nM and 1140 nM | – | 404 nM and 2650 nM | 0.251 | 10 | 2.05 | 18.5 | – | 79.2 | 8.26 | 28.2 | 30.7
COC(=O)c1cc2c3c(cc(O)c2[nH]1)N(C(=O)C1Cc2cc(OC)c(OC)c(OC)c2N1)CC3CCl (centres undefined) | < 10 | < 10 nM | – | – | < 10 nM | – | < 10 | < 10 | 15.4 nM | – | < 10 nM | – | – | – | < 10 | < 10 | – | < 10 | < 10 | < 10
COc1cc(/C=C2\CN(S(=O)(=O)c3ccc(C)cc3)C/C(=C\c3cc(CN4CCCCC4)c(O)c(OC)c3)C2=O)cc(CN2CCCCC2)c1O | 4580 | 1320 nM | 3270 nM | 3320 | – | 2390 | – | 4750 | 3420 nM | 2770 | 1980 nM | 1730 | 1630 | 375 | – | 1870 | 1140 | 306 | – | 1770
COc1ccc(Cl)cc1NC(=O)c1c(NC(=O)C(F)(F)C(F)(F)F)sc2c1CCCCC2 | – | 7680 nM | 4860 nM | 3860 | 5710 nM | 8680 | > 100000 | 11300 | – | – | – | 1030 | 397 | 1680 | 2480 | 1470 | – | 588 | 1070 | –
Oc1ccc2ccccc2c1N=Nc1ccccn1 | 43400 | 43000 nM | 906 nM | 8220 | > 82500 nM | > 100000 | > 100000 | > 100000 | > 100000 nM | > 100000 | 449 nM | 138 | 1350 | 527 | 523 | 1760 | 468 | 1970 | 3080 | 1460
COc1ccc(CCCC(=O)O)c(C)c1 | > 100000 | > 100000 nM | 51100 nM | > 100000 | > 100000 nM | – | > 100000 | > 100000 | > 100000 nM | > 100000 | – | – | – | – | – | – | – | – | – | –
COc1cc2cc(C(=O)N3CC(CCl)c4c3cc(N(C)C)c3ccccc43)[nH]c2c(OC)c1OC (centres undefined) | 24.5 | 26.1 nM | < 10 nM | 16.7 | < 10 nM | – | – | 180 | 235 nM | > 100000 | – | – | – | – | – | – | – | – | – | –
